The text below walks through data of US9889157B2, “Phosphate-binding magnesium salts and uses thereof” (Cypress Pharmaceuticals, Inc., priority 2009, dated 2018).

A short description of the test: Phosphate-binding assay in phosphate-binding solution (PBS) simulating small intestinal fluid (SIF). As to the method:
Exemplary stock solutions suitable for phosphate-binding assays include the following: phosphate-binding solution (“PBS”) containing 10 mM KH2PO4, 30 mM Na2CO3, 80 mM NaCl, as described in Rosenbaum et al. Nephrol. Dial. Transplant. 12:961-964 (1997); acetate buffer (“AB”) solution containing 0.1N acetic acid, 0.025N sodium acetate, as described in Lowry & Lopez J. Biol. Chem. 162:421-428 (1946); ammonium molybdate (“AM”) solution containing 1% ammonium molybdate in 0.05N H2SO4, as described in Lowry & Lopez; ascorbic acid (“AA”) solution containing 1% ascorbic acid in H2O, as described in Lowry & Lopez.
In general, the phosphate-binding assay was conducted in 12×75 mm glass tubes. 4.0 mL PBS (which is a solution simulating SIF) and 20 mg putative phosphate binder were added to a glass tube and then mixed for 1 h at room temperature. 0.1 mL supernatant was pipetted from this tube to a new test tube. 3.0 mL AB, 0.3 mL AA and 0.3 mL AM solutions were added and O.D. were measured at 700 nm after 10 minutes.
The phosphate binding capacity was calculated as follows (mcg stands for micrograms): ((O.D. of sample×95)/O.D. of standard)×40=mcgPO4 left in solution ((3800−mcgPO4 left)×50)/1000=mgPO4 bound per gram of phosphate binder

Setting [1] is: Table 3, 20 mg binder in 4.0 mL PBS, 1 h, room temperature.
Setting [2] is: Table 4, calculated from Table 3 and % Mg (or % Ca).
Setting [3] is: Table 2, 20 mg binder in 4.0 mL PBS, 1 h, room temperature.

As for `O=S(=O)([O-])[O-].[Mg+2]` [Mg sulfate], the PO4 binding under setting [1] was 9 mg/g.
For the compound `O=C1O[C@H]([C@@H](O)CO)C(O)=C1[O-].O=C1O[C@H]([C@@H](O)CO)C(O)=C1[O-].[Mg+2]` [Mg ascorbate], the PO4 binding under setting [1] is on record as 4 mg/g.
Under setting [1], `CC(O)C(=O)[O-].CC(O)C(=O)[O-].[Mg+2]` (stereo not shown) [Mg lactate] displayed a PO4 binding of 15 mg/g.
`O=C([O-])/C=C\C(=O)[O-].[Mg+2]` [Mg maleate] registered a PO4 binding under setting [1] of 15 mg/g.
magnesium arginate [Mg arginate] showed a PO4 binding under setting [1] of 121 mg/g. Moreover, the “mg PO4 bound per g Mg or Ca in compound” value is given as 1862 mg PO4 per g Mg or Ca under setting [2] and 1815 mg PO4 per g Mg (or Ca) (Table 5, additional results). Also, the “mg PO4 bound per g compound” value is 121 mg PO4 per g compound (Table 4, taken from Table 3) and 118 mg PO4 per g compound (Table 5, additional results).
For the compound `O=C([O-])CC(O)C(=O)[O-].[Mg+2]` (stereo not shown) [Mg malate], the “mg PO4 bound per g compound” value (Table 5, additional results) is 29 mg PO4 per g compound.
On to `O=C([O-])C(O)C(O)C(=O)[O-].[Mg+2]` (stereo not shown) [Mg tartrate, magnesium tartrate], for which the PO4 binding under setting [1] is on record as 28 mg/g.
In the case of `[Mg+2].[OH-].[OH-]` [Mg(OH)2, magnesium hydroxide], the PO4 binding is listed as 176.2 mg/g under setting [3]; 182 mg/g under setting [1]; 179.0 mg/g (Table 6, without acid treatment). Further, the “mg PO4 bound per g Mg or Ca in compound” value under setting [2] was 436 mg PO4 per g Mg or Ca. Besides, the “mg PO4 bound per g compound” value (Table 4, taken from Table 3) is listed as 182 mg PO4 per g compound.
As to `O.O.O.O.O.O.O.O=S(=O)([O-])[O-].[Mg+2]` [MgSO4•7H2O], the PO4 binding under setting [3] is listed as 19.0 mg/g.
On to magnesium betainate [Mg betainate], for which the PO4 binding under setting [1] was 147 mg/g. In addition, the “mg PO4 bound per g Mg or Ca in compound” value reads like this: under setting [2], 1547 mg PO4 per g Mg or Ca; (Table 5, additional results) 1484 mg PO4 per g Mg (or Ca). Also, the “mg PO4 bound per g compound” value runs as follows: (Table 4, taken from Table 3) 147 mg PO4 per g compound; (Table 5, additional results) 141 mg PO4 per g compound.
On to `[O]=[Mg]` [MgO, magnesium oxide], for which the PO4 binding is on record as 184.0 mg/g under setting [3] and “≧190 mg/g” under setting [1]. Besides, the “mg PO4 bound per g Mg or Ca in compound” value under setting [2] is 315 mg PO4 per g Mg or Ca and the “mg PO4 bound per g Mg or Ca in compound” value (Table 5, additional results) was 310 mg PO4 per g Mg (or Ca). Besides, the “mg PO4 bound per g compound” value was 190 mg PO4 per g compound (Table 4, taken from Table 3) and 187 mg PO4 per g compound (Table 5, additional results).
Regarding `[Cl-].[Cl-].[Mg+2]` [Mg chloride, magnesium chloride], the PO4 binding under setting [1] is 4 mg/g.
magnesium lysinate [Mg lysinate]: under setting [1], the PO4 binding is on record as 150 mg/g. Moreover, the “mg PO4 bound per g Mg or Ca in compound” value under setting [2] is recorded as 1948 mg PO4 per g Mg or Ca and the “mg PO4 bound per g Mg or Ca in compound” value (Table 5, additional results) is recorded as 1792 mg PO4 per g Mg (or Ca). The “mg PO4 bound per g compound” value by setting is: (Table 4, taken from Table 3) 150 mg PO4 per g compound; (Table 5, additional results) 138 mg PO4 per g compound. In addition, for the setting “from Table 4”, the “phosphate bound by 1 gram of Mg in the salt relative to 1 gram of calcium in PhosLo (Ca acetate)” value is given as “almost three times as much”.
Turning to `N[C@@H](CC(=O)[O-])C(=O)[O-].[Mg+2]` [Mg aspartate, magnesium aspartate], the PO4 binding under setting [1] is listed as 50 mg/g.
With `CCC(=O)[O-].CCC(=O)[O-].[Mg+2]` [Mg propionate, magnesium propionate], under setting [1], the PO4 binding is given as 59 mg/g.
`O=C([O-])c1cccnc1.O=C([O-])c1cccnc1.[Mg+2]` [Mg nicotinate]: the PO4 binding under setting [1] is 4 mg/g.
Compound `O=C([O-])[O-].[Ca+2]` [CaCO3, calcium carbonate, reference compound] gave a PO4 binding under setting [3] of 10.9 mg/g.
On to `O=C([O-])CCC(=O)[O-].[Mg+2]` [Mg succinate], for which, under setting [1], the PO4 binding is recorded as 18 mg/g.
With magnesium carnitinate [Mg carnitinate], the PO4 binding under setting [1] was 169 mg/g.
For the compound “magnesium aminobutyrate [Mg aminobutyrate]”, the PO4 binding under setting [1] is on record as 85 mg/g. In addition, under “Table 5, additional results”, the “mg PO4 bound per g compound” value is on record as 76 mg PO4 per g compound.
Take `NCC(=O)[O-].NCC(=O)[O-].[Mg+2]` [Mg glycinate, magnesium glycinate]: the PO4 binding under setting [1] is reported as 176 mg/g. The “mg PO4 bound per g Mg or Ca in compound” value runs as follows: under setting [2], 1248 mg PO4 per g Mg or Ca; (Table 5, additional results) 1255 mg PO4 per g Mg (or Ca). For the same compound, the “mg PO4 bound per g compound” value is 176 mg PO4 per g compound (Table 4, taken from Table 3) and 177 mg PO4 per g compound (Table 5, additional results).
Compound `CC(=O)[O-].CC(=O)[O-].[Mg+2]` [Mg acetate] gave a PO4 binding under setting [1] of 4 mg/g.
As to `O=C([O-])/C=C/C(=O)[O-].[Mg+2]` [Mg fumarate], the PO4 binding under setting [1] is 4 mg/g.
For the compound `O=C([O-])CCCCC(=O)[O-].[Mg+2]` [Mg adipate], under setting [1], the PO4 binding is 6 mg/g.
On to `O=C([O-])CC(O)(CC(=O)[O-])C(=O)[O-].O=C([O-])CC(O)(CC(=O)[O-])C(=O)[O-].[Mg+2].[Mg+2].[Mg+2]` [Mg citrate], for which the PO4 binding was 16.3 mg/g under setting [3] and 15 mg/g under setting [1].
Under setting [1], `O=C([O-])c1cc(=O)[nH]c(=O)[nH]1.O=C([O-])c1cc(=O)[nH]c(=O)[nH]1.[Mg+2]` [Mg orotate] had a PO4 binding of 20 mg/g.
Still for that read-out and setting: next, Mg stearate: 15 mg/g; `O=C[O-].O=C[O-].[Mg+2]` [Mg formate]: 6 mg/g.
Regarding `O=C([O-])[O-].[Mg+2]` [MgCO3, magnesium carbonate], the PO4 binding runs as follows: under setting [3], 19.0 mg/g; under setting [1], 22 mg/g.
